Data on two compounds can be found in paper PMC8949129, “Unique Phenanthrenes from Juncus ensifolius and Their Antiproliferative and Synergistic Effects with the Conventional Anticancer Agent Doxorubicin against Human Cancer Cell Lines” (Pharmaceutics, 2022).

Where two headings read alike, the source gives them in different places.

For series [1], the system named is HeLa human cervix carcinoma cells. The experiment in a line: Antiproliferative MTT assay, HeLa. The class given is cell-based. The conditions noted are these: for IC50: MTT, 72 h, four parallel measurements, read-out: IC50 (µM) ± SD HeLa; for SI MRC-5/HeLa: selectivity index: IC50 in non-tumour cells / IC50 in cancer cells. (In general: Tetrazolium dyes change colour on reduction, which living cells bring about.)
Description: (§1) The human colon adenocarcinoma cells (COLO 205 sensitive and the resistant COLO 320/MDR-LRP expressing P-gp), namely, ATCC-CCL-220.1 (COLO 320) and CCL-222 (COLO 205) were cultured in RPMI 1640 medium supplemented with 10% heat-inactivated fetal bovine serum, 2 mM L-glutamine, 1 mM Na pyruvate, and 100 mM HEPES. HeLa (ATCC® CCL-2™) human cervix carcinoma cells, and MRC-5 (ATCC® CCL-171) human embryonal lung fibroblast cells were cultured in Eagle’s minimal essential medium (EMEM, containing 4.5 g/L glucose) supplemented with a non-essential amino acid mixture, a selection of vitamins, and 10% heat-inactivated fetal bovine serum. The cell lines were detached with 0.25% trypsin and 0.02% EDTA for 5 min at 37 °C.
(§2) In the study, human colonic adenocarcinoma cell lines (doxorubicin-sensitive COLO 205 and multidrug resistant COLO 320 colonic adenocarcinoma cells), HeLa human cervix carcinoma cells and the MRC-5 non-cancerous human embryonic lung fibroblast cell line were used to determine the effect of the compounds on cell growth. The effects of increasing concentrations of compounds on cell growth were tested in 96-well flat-bottomed microtiter plates. […] The compounds were diluted in a volume of 100 μL of the medium. The adherent cells were cultured in 96-well flat-bottomed microtiter plates using EMEM supplemented with 10% heat-inactivated fetal bovine serum. The density of the cells was adjusted to 6 × 10^3 cells in 100 µL per well, the cells were seeded prior to the assay for 24 h at 37 °C, with 5% CO2, and then the medium was removed from the plates, and fresh medium (100 µL per well) was added to the cells. The effects of increasing concentrations of compounds on cell proliferation were tested in 96-well flat-bottomed microtiter plates. The compounds were diluted in the appropriate medium; the dilutions of compounds were performed in separate plates and then added to the cells. The starting concentration of the compounds was 100 µM, and two-fold serial dilution was performed (concentration range: 100–0.19 µM). The culture plates were incubated at 37 °C for 72 h; at the end of the incubation period, 20 µL of MTT (thiazolyl blue tetrazolium bromide, Sigma) solution (from a stock solution of 5 mg/mL) was added to each well. After incubation at 37 °C for 4 h, 100 µL of sodium dodecyl sulfate (SDS) (Sigma) solution (10% in 0.01 M HCI) was added to each well, and the plates were further incubated at 37 °C overnight. Cell growth was determined by measuring the optical density (OD) at 540/630 nm, with a Multiscan EX ELISA reader (Thermo Labsystems, Cheshire, WA, USA). Inhibition of cell growth (expressed as IC50: inhibitory concentration that reduces the growth of the cells exposed to the tested compounds by 50%) was determined from the sigmoid curve where 100 − ((ODsample − ODmedium control)/(ODcell control − ODmedium control)) × 100 was plotted against the logarithm of the compound concentrations. Curves were fitted by Prism5 software (GraphPad Software Inc., San Diego, CA, USA) from four parallel experiments for each cell line. Results are expressed in terms of IC50, defined as the inhibitory dose that reduces the proliferation of the cells exposed to the tested compounds by 50% [20].

Series [2] in a line: Stability of the hemiacetal, 1H NMR measured again. It is filed as physicochemical. The conditions noted are these: 1H NMR measured again one day later; two sets of signals approx. 1:0.6. From the text: Compound 2 (ensifolin B) has the molecular formula C25H24O4 compatible with the fragment ion in the HRESIMS at m/z 369.1497 [M − H2O − H]^− (calcd for 369.1491). […] The structure of the phenanthrene skeleton was assembled through 2D NMR analysis. It was concluded that the phenanthrene core of compound 2 is identical to sylvaticin A, a 9,10-dihydrophenanthrene recently described from Luzula sylvatica. However, NMR characteristics of the H2-11 oxymethylene in 2 are different compared to those of sylvaticin A, including its […] shifted carbon (δC 66.2 vs. 60.2) and magnetically inequivalent protons (δH 5.19 and 5.09, vs. δH 5.01, 2H, s). […] Similar to compound 1, ensifolin B (2) also has an asymmetric carbon atom (C-1′). The specific rotation value [α ]D25 of the compound was +2 (c 0.1, MeOH). When compound 2 was injected onto a chiral HPLC column, it eluted with two well-separated peaks with a peak ratio area of 1:1. […] Intermolecular hemiacetals are intrinsically unstable with respect to their parent alcohols and aldehydes. […] Considering that sylvaticin A and 4-hydroxybenzaldehyde, the minor compounds of the mixture were also isolated from other fractions (compound 16 and 18, respectively), it is unclear whether these phytochemicals originally presented in the harvested plant material or whether they are just by-products of the decomposition of compound 2.

The test system of series [3] is MRC-5 human embryonal lung fibroblast cells. The series is described as follows: Antiproliferative MTT assay, MRC-5 non-tumor cells. The class given is cell-based. The conditions noted are these: four parallel measurements, read-out: IC50 (µM) ± SD MRC-5.
Description: as §1, §2
The subject of series [4] is COLO 205 doxorubicin-sensitive colonic adenocarcinoma cells. The series is described as follows: Antiproliferative MTT assay, COLO 205. The conditions noted are these: for IC50: MTT, 72 h, four parallel measurements, read-out: IC50 (µM) ± SD COLO 205; for SI MRC-5/COLO 205: selectivity index: IC50 in non-tumour cells / IC50 in cancer cells. It is filed as cell-based, human.
Description: as §1, §2

Series [5] has as its system COLO 320/MDR-LRP multidrug resistant colonic adenocarcinoma cells expressing P-gp. The series is described as follows: Antiproliferative MTT assay, COLO 320. The conditions noted are these: for IC50: read-out: IC50 (µM) ± SD COLO 320; for SI MRC-5/COLO 320: selectivity index: IC50 in non-tumour cells / IC50 in cancer cells.
Description: as §1, §2
The test system of series [6] is HeLa cells. The series is described as follows: Drug combination assay with doxorubicin (MTT, CompuSyn). Also on record: key to CI (combination index): CI <1 synergy, ~1 additivity, >1 antagonism. It is filed as cell-based, human. The conditions noted are these: for Interaction: interaction type with doxorubicin; for CI (combination index): with doxorubicin, 72 h, average over drug ratios at IC50. Here is the method: The HeLa cell line was used to perform this assay. Doxorubicin (2 mg/mL, Teva Pharmaceuticals, Budapest, Hungary) was serially diluted in the horizontal direction, starting with 8.6 µM. The resistance modifier was subsequently diluted in the vertical direction, and the starting concentration was determined based on the IC50. The dilutions of doxorubicin were made in a horizontal direction in 100 µL, and the dilutions of the resistance modifiers occurred vertically in the microtiter plate in a 50 µL volume. The compounds and doxorubicin were diluted separately. […] Then, diluted compounds with a volume of 50 μL were added to each well to reach a final volume of 200 μL. The plates were incubated for 72 h at 37 °C in a CO2 incubator, and at the end of the incubation period, the cell growth was determined by the MTT staining method, as described earlier. Drug interactions were evaluated using CompuSyn software. Each dose-response curve (for individual agents as well as combinations) was fit to a linear model using the median effect equation in order to obtain the median effect value (corresponding to the IC50) and slope (m). The goodness-of-fit was assessed using the linear correlation coefficient, r, and only data from analysis with r > 0.90 are presented. The extent of the interaction between drugs was expressed using the combination index in which a CI value close to 1 indicates additivity, while CI < 1 is defined as synergy and CI > 1 as antagonism.

For the next series, the system named is human neutrophils. Details: method as in PMID 27940118. The conditions noted are these: fMLP/CB activation ref 16, read-out: IC50 elastase release; cited from earlier work.
For series [7], the system named is HeLa cells. Details: method as in PMID 33064469. The conditions noted are these: HeLa ref 15; read-out: IC50 antiproliferative activity against HeLa cells; cited from earlier work.
In series [8] the test system is superoxide anion generation. Details: method as in PMID 27940118. The conditions noted are these: anti-inflammatory activity ref 16; cited from earlier work.

The term IC50 denotes the concentration that inhibits the measured activity by half.

With `C=Cc1cc(C)cc2c1-c1ccc(O)c(COC(O)c3ccc(O)cc3)c1CC2` (stereo not shown) [Compound 2, Ensifolin B], the IC50 in [1] (Homo sapiens, HeLa) came out at 33.49 ± 0.29 µM; in [3] (Homo sapiens, MRC5, 72 h) it was 51.87 ± 0.14 µM; in [4] (Homo sapiens, COLO 205, 72 h), 45.6 ± 0.5 µM; in [5] (Homo sapiens, COLO 320, 72 h) it was 37.24 ± 0.11 µM. For the same compound, the “SI MRC-5/HeLa” value in [1] worked out at 1.55. Also, the “stability of initially pure compound” value in [2] is recorded as “showed signs of decomposition”. Further, the “SI MRC-5/COLO 205” value in [4] amounted to 1.14. The “SI MRC-5/COLO 320” value in series [5] was found to be 1.39. The Interaction result with HeLa cells [6] is “synergism (0.3 < CI < 0.7: synergism)”. In the series on HeLa cells [6], the “CI (combination index)” value is on record as 0.584.
In the case of juncuenin B [Compound 15], the IC50 in series [1] was 6.67 ± 0.03 µM; with human neutrophils, 5.5 µM; in the series on HeLa cells [7], 2.9 µM; in series [3] (72 h), 35.9 ± 1.23 µM; in series [4], 37.1 ± 0.57 µM; in series [8], 4.9 µM. Further, in series [5] (MTT, 72 h, four parallel measurements), the IC50 was determined as 30.5 ± 0.93 µM. In [1], the “SI MRC-5/HeLa” value was 5.37. The “SI MRC-5/COLO 205” value in [4] is given as 0.97. Besides, the “SI MRC-5/COLO 320” value in [5] is recorded as 1.17. The Interaction result with HeLa cells [6] is “slight synergism (0.7 < CI < 0.9: moderate to slight synergism)”. Also, in the series with HeLa cells [6], the “CI (combination index)” value was 0.864.
